Measured values reported in patent US12214039B2, “Systems and methods for treatments of an eye with a photosensitizer” (Avedro, Inc., priority 2015, dated 2025).
Entries after “also recorded” stand apart in the source; their conditions may differ.

Assays:
[1] = single surfactant; cited from earlier work
[2] = tested on: pig eyes with intact epithelium; assay: Relative fluorescence (F/Fo) of cross-linked corneal flaps, surfactants in riboflavin solution (Study 4)
Protocol: Pig eyes shipped overnight on ice from an abattoir (SiouxPreme, Sioux City, IA) were rinsed in saline. The eyes with intact epithelium were soaked with one of the test solutions below for 20 minutes in an incubator set at 37° C. by using a rubber ring to hold the solution on top.
For a Group A of the pig eyes, the following riboflavin formulations were used: • (a1) 0.25% riboflavin solution containing BAC (PARACEL™, Avedro, Inc., Waltham, MA); • (a2) 0.1% w.v. riboflavin solution containing saline (PHOTREXA ZD™ Avedro, Inc., Waltham, MA) with added riboflavin to match the riboflavin content (0.25%) in solution (a1); • (a3) solution (a2) with 1% Polidocanol; • (a4) solution (a2) with 5% Polidocanol; and • (a5) solution (a2) with 10% Polidocanol.
The epitheliums of eyes in Group A were removed with a dull blade after the eyes were soaked in one of the solutions and irradiated pan-corneally on air with a top hat beam (3% root mean square) for 4 minutes with 365-nm light source (UV LED NCSU033B[T]; Nichia Co., Tokushima, Japan) at a chosen irradiance of 30 mW/cm^2 which was measured with a power sensor (model PD-300-UV; Ophir, Inc., Jerusalem, Israel) at the corneal surface. Corneal flaps (approximately 200 μm thick) were excised from the eyes with aid of an Intralase femtosecond laser (Abbot Medical Optics, Santa Ana, CA). The average thickness of the corneal flaps was calculated as a difference between the measurements before and after the excision from the eyes with an ultrasonic Pachymeter (DGH Technology, Exton, PA). The flaps were washed with distilled water and dried in a vacuum until the weight change became less than 10% (Rotary vane vacuum pump RV3 A652-01-903, BOC Edwards, West Sussex, UK). […] Papain digests were diluted 0.5 times with 1×BBBS and fluorescence of the solutions was measured with excitation of 360 nm in a QM-40 Spectrofluorometer (Photon Technology Int., London, Ontario, Canada). The fluorescence of the papain buffer was taken into account by measuring fluorescence in the absence of tissue and subtracting this value from the fluorescence of the samples. […]

[3] = in riboflavin solution, pig eyes

Row | Molecule | HLB number [1] | corrosion and damage to the epithelium ([2]; corneal epithelium) | enhancing permeability and generating cross-linking activity, compared with other surfactants [2, 3] | enhancing permeability in the epithelium and generating cross-linking activity, compared with BAC [2, 3]
1 | CCCCCCCCCc1ccc(OCCOCCOCCOCCOCCOCCOCCOCCOCCO)cc1 [IGEPAL CO-630] | 13 | – | – | –
2 | Polyoxyethylene (9) lauryl ether [Polidocanol] | – | do not cause damage to the epithelium; also recorded: less corrosive and damaging to the epithelium than BAC | more effective than many other surfactants | far more effective and efficient than BAC
